Activity calls are given as the source filed them. No cut-off for these calls is given here.
Assays:
[1] = Permeability of compound incubated for 12 hrs by PAMPA; type: ADME; conditions: read-out: permeability
U-118-MG [2] = test: Inhibition of cell migration in human U-118-MG cells at 0.1 to 10 uM incubated for 24 hrs by microscopy based wound healing assay; type: functional; conditions: dose 0.1-10 µM
[3] = Stability of compound in sodium phosphate buffer at pH 7.4 measured after 48 hrs by 1H NMR analysis; type: physicochemical; conditions: pH 7.4, 48 h
[4] = Toxicity in male BALB/c nude mouse xenografted with human U-118-MG cells assessed as metastasis in kidney at 2.5 to 10 mg/kg, ip administered daily for 4 weeks by H and E staining based analysis; type: organism-based; conditions: in vivo, 672 h, dose 2.5-10 mg/kg
[5] = Toxicity in male BALB/c nude mouse xenografted with human U-118-MG cells assessed as effect on serum urea level at 2.5 to 10 mg/kg, ip administered daily for 4 weeks; type: organism-based; conditions: in vivo, 672 h, dose 2.5-10 mg/kg
U-118-MG [6] = test: Cytotoxicity against human U-118-MG cells assessed as reduction in cell viability at 0.1 to 10 uM incubated for 24 hrs; type: functional, cell-based; conditions: dose 0.1-10 µM
[7] = Cmax in Sprague-Dawley rat at 5 mg/kg, ip; type: ADME, organism-based; conditions: in vivo
[8] = Toxicity in male BALB/c nude mouse xenografted with human U-118-MG cells assessed as metastasis in liver at 2.5 to 10 mg/kg, ip administered daily for 4 weeks by H and E staining based analysis; type: organism-based; conditions: in vivo, 672 h, dose 2.5-10 mg/kg
[9] = Observed volume of distribution in Sprague-Dawley rat at 5 mg/kg, ip; type: ADME, organism-based; conditions: in vivo
U-118-MG [10] = test: Antiproliferative activity against human U-118- MG cells assessed as inhibition of cell proliferation at 10 uM by crystal violet staining based analysis; type: functional
U-118-MG [11] = test: Cell cycle arrest in human U-118-MG cells assessed as accumulation of cells at G1 phase at 20 uM incubated for 24 hrs by flow cytometric analysis (reference value: 56.2 %); type: functional
[12] = Drug distribution in Sprague-Dawley rat plasma at 5 mg/kg, ip measured after 4 hrs; type: ADME, organism-based
U-118-MG [13] = test: Cell cycle arrest in human U-118-MG cells assessed as accumulation of cells at G1 phase at 10 uM incubated for 24 hrs by flow cytometric analysis (reference value: 56.2 %); type: functional
U-118-MG [14] = test: Inhibition of cell migration in human U-118-MG cells incubated for 24 hrs by transwell assay; type: functional, cell-based; conditions: dose 0.1-10 µM
U-118-MG [15] = test: Cell cycle arrest in human U-118-MG cells assessed as accumulation of cells at S phase at 10 uM incubated for 24 hrs by flow cytometric analysis (reference value: 10.7 %); type: functional
[16] = Toxicity in male BALB/c nude mouse xenografted with human U-118-MG cells assessed as effect on serum creatinine level at 2.5 to 10 mg/kg, ip administered daily for 4 weeks; type: organism-based; conditions: in vivo, 672 h, dose 2.5-10 mg/kg
U-118-MG [17] = test: Cell cycle arrest in human U-118-MG cells assessed as accumulation of cells at S phase at 20 uM incubated for 24 hrs by flow cytometric analysis (reference value: 10.7 %); type: functional
U-118-MG [18] = test: Antitumor activity against human U-118-MG cells xenografted in male BALB/c nude mouse assessed as suppression of tumor growth at 2.5 to 10 mg/kg, ip administered daily for 4 weeks; type: functional, organism-based; conditions: dose 2.5-10 mg/kg
[19] = Stability of compound in sodium carbonate buffer at pH 10 measured after 48 hrs by 1H NMR analysis; type: physicochemical; conditions: pH 10, 48 h

Papp at 12 h [1]: 12.1 ×10⁻⁶ cm/s
Stability [3]: Stable
Cmax [7]: 152 ng/mL
Vd [9]: 65.2 L/kg
concentration at 4 h [12]: 69.4 ng/mL
Stability [19]: Stable
SMILES: COc1ccc2c(c1OC)C(=O)O[C@@H]2[C@H]1c2c(c(Br)c3c(c2OC)OCO3)CCN1C(F)(F)F
inhibition (U-118-MG [2]): Active
Activity [4]: Non-toxic
Activity [5]: Non-toxic
Activity (U-118-MG [6]): inactive
Activity [8]: Non-toxic
Activity (U-118-MG [10]): Active
Activity (U-118-MG [11]): 48.3%
Activity (U-118-MG [13]): 56.6%
inhibition (U-118-MG [14]): Dose-dependent-effect
Activity (U-118-MG [15]): 9.24%
Activity [16]: Non-toxic
Activity (U-118-MG [17]): 9.68%
Activity (U-118-MG [18]): Active

Reference: ChEMBL document CHEMBL6078714, “Discovery of N-Trifluoromethylated Noscapines as Novel and Potent Agents for the Treatment of Glioblastoma” (J Med Chem, 2025)
